From patent US20260373176A1, “Compounds Targeting KRAS G12D Mutations and Their Uses” (InnoPharmaScreen Inc., priority 2023, published 2026)
Entries after “also recorded” stand apart in the source; their conditions may differ.

What was measured:
KRAS = conditions: PROTAC recruiting CRBN; cited from earlier work
CRBN-KRAS G12D = target: T1, CRBN-KRAS G12D (Homo sapiens, UniProt P01116+Q96SW2, G12D); assay: SPR ternary complex formation assay of CRBN-KRAS G12D-MG (1:1 Langmuir binding model)
T1 construct: His-tag (for the complex); purchased Abcam (KRAS G12D); R&D systems (CUL4A/RBX1/DDB1/CRBN complex) ab268712; E3-650
Procedure: (§1) CaCo-2 (ATTC), H1975 (CRL-5908) and LS-180 (CCL-187) cells were obtained from ATCC, expanded immediately, and frozen down. Vials were thawed and used within 20 passages. SNU-407, SNU-1033 and SK-LU-1 cells were obtained from Korean Cell Line Bank, expanded immediately, and frozen down. Vials were thawed and used within 20 passages. Caco-2 cells were cultured in MEM (Welgene, LM007-07) supplemented with 10% FBS GenDEPOT; cat. no. F0900-050) and 1% Antibiotic Antimycotic solution (Welgene; cat. No. LS203-01). H1975, SNU-407, SNU-1033 cells were cultured in RPMI (Welgene, LM011-03) supplemented with 10% FBS GenDEPOT; cat. no. F0900-050) and 1% Antibiotic Antimycotic solution (Welgene; cat. No. LS203-01). SK-LU-1 and LS-180 cells were cultured in DMEM (Welgene, LM001-05) supplemented with 10% FBS GenDEPOT; cat. no. F0900-050) and 1% Antibiotic Antimycotic solution (Welgene; cat. No. LS203-01). PBS (Welgene; cat. no. LB004-02) was used to wash cells and 0.25% Trypsin-EDTA (Welgene; cat. no. LS015-01) was used to detach cells for passaging. KRAS Mouse Monoclonal Antibody was purchased from Origene (cat. no. TA801672), anti-3-actin was purchased from AB Frontier (cat. no. LF-MA20055). […]
The injection was performed at a flow rate and for a contact time according to the Korea University Stem cell Lab guidelines. […] The sensorgrams were recorded using the embedded software imSPR-mini v 1.1.0. […]

KRAS WT = target: T2, KRAS WT (Homo sapiens, UniProt P01116+Q96SW2); assay: Western blot analysis of KRAS WT degradation in Caco-2 cells; format: cell-based
T2 construct: molecular glue degradation via endogenous CRBN, western blot
Procedure: as §1, with “LS203-01).” for “LS203-01). PBS (Welgene; cat. no. LB004-02) was used to wash cells and 0.25% Trypsin-EDTA (Welgene; cat. no. LS015-01) was used to detach cells for passaging. KRAS Mouse Monoclonal Antibody was purchased from Origene (cat. no. TA801672), anti-3-actin was purchased from AB Frontier (cat. no. LF-MA20055).”
2.0×10^5 cells were seeded into 6-well plates (SPL; cat. no. 30006). […] Protein concentration of the supernatant was measured using a BCA reagent. […] Detection of bound antibodies was carried out using ECL reagents (KwikQuant #R1004) and bands were detected by ATTO Luminograph III Lite. The intensity of the KRAS band was quantified using ImageJ software and normalized to the intensity of GAPDH band.

[1] = system: AsPC-1 pancreatic cancer cells; assay: In vivo tumor growth, AsPC-1 xenograft mice; set-up: species or system mouse (BALB/c nu/nu nude mice)
Procedure: We have conducted the in vivo tumor growth assay using AsPC-1 pancreatic cancer cell-implanted xenograft animals by requesting Eins solution (Gwanggyo, Korea).
Experimental procedures that involved animals and their care were conducted in compliance with the Guide for the Care and Use of Laboratory Animals15 and ARRIVE guidelines. Animal experiments were approved by Animal Care and Use Committee of Woojung center for phenogenomics (Hwasung, Korea) and conducted at WoojungBio Inc. (Hwasung, Korea) in accordance with the guidelines. BA LB/C (nu/nu) nude mice of both genders aged 6 weeks and weighing 16-22 g were purchased from Nara biotech Co, Ltd. (Seoul, Korea). The mice were housed in a pathogen-free environment at a temperature of 25 °C and relative air humidity between 45 and 50%. All surgeries were performed in a sterile environment. To establish subcutaneous […] tumors, 1×10^6 AsPC-1 cells/100 μL were subcutaneously injected into the left groin region of BALB/nu nu male mice (7 weeks old; Nara Biotech Inc., Seoul, Korea). Immediately before treatment, IPS-06061 was dissolved in DMSO and then diluted tenfold in normal saline. Tumor-baring mice in vehicle control, IPS-06061 (low), and IPS-06061 (high) groups were injected intravenously with vehicle (1:10 DMSO to saline, v/v), 30 mg/kg IPS-06061 solution, or 80 mg/kg IPS-06061 solution, respectively, twice a week for 28 days (n=10 mice per major group) (FIG. 11). Tumor growth rate was recorded on day 7, 14, 21, and 28 by measuring the major and minor axes with a digital caliper. Measurements were transformed into tumor volumes using the formula tumor volume (mm^3)=major axis×minor axis^2×0.5. Tumor, liver, and kidneys were collected from major groups on day 28 within 3 h of the last injection and weighed. The tumors were subsequently frozen in liquid nitrogen and stored at −80 °C until homogenization for western blotting.
To confirm the anti-tumor effect of IPS-06061, we employed a xenograft mouse model implanting AsPC-1 pancreatic cancer cells. After the tumor volume had grown to approximately 100 mm^3, IPS-06061 was administered […] twice a week for 28 days. […] Toxicity was assessed by measuring body weight, food intake, complete blood cell count, and biochemical blood chemistry.

KRAS G12D [2] = assay: KRAS G12D degradation in AsPC-1 xenograft mice; format: in vivo, mouse (BALB/c nu/nu nude mice); conditions: 80 mpk BiW, oral; at 28 days after treatment
[3] = Toxicity in AsPC-1 xenograft mice (body weight, food intake, blood count, blood chemistry); format: in vivo, mouse (BALB/c nu/nu nude mice)
Procedure: Experimental procedures that involved animals and their care were conducted in compliance with the Guide for the Care and Use of Laboratory Animals15 and ARRIVE guidelines. Animal experiments were approved by Animal Care and Use Committee of Woojung center for phenogenomics (Hwasung, Korea) and conducted at WoojungBio Inc. (Hwasung, Korea) in accordance with the guidelines. BA LB/C (nu/nu) nude mice of both genders aged 6 weeks and weighing 16-22 g were purchased from Nara biotech Co, Ltd. (Seoul, Korea). The mice were housed in a pathogen-free environment at a temperature of 25 °C and relative air humidity between 45 and 50%. All surgeries were performed in a sterile environment. To establish subcutaneous […] tumors, 1×10^6 AsPC-1 cells/100 μL were subcutaneously injected into the left groin region of BALB/nu nu male mice (7 weeks old; Nara Biotech Inc., Seoul, Korea). Immediately before treatment, IPS-06061 was dissolved in DMSO and then diluted tenfold in normal saline. […] Tumor growth rate was recorded on day 7, 14, 21, and 28 by measuring the major and minor axes with a digital caliper. […]
To confirm the anti-tumor effect of IPS-06061, we employed a xenograft mouse model implanting AsPC-1 pancreatic cancer cells. […] Toxicity was assessed by measuring body weight, food intake, complete blood cell count, and biochemical blood chemistry.

KRAS G12D [4] = target: T3, KRAS G12D (Homo sapiens, UniProt P01116+Q96SW2, G12D); assay: Western blot analysis of KRAS G12D degradation in cells; format: cell-based; set-up: degradation by molecular glue via endogenous CRBN, western blot
Procedure: 2.0×10^5 cells were seeded into 6-well plates (SPL; cat. no. 30006). The next day, media was removed, and cells were treated with 0, 1, 5, 10, 50, 100 μM KRAS-MG in serum free media. For 24 h, 48 h, and 72 h. Cells were lysed using a RIPA buffer and clarified at 21,000×g for 15 min at 4 °C. Protein concentration of the supernatant was measured using a BCA reagent. (Thermofisher; cat. no. 23225) incubated at 37 °C for 30 mins. For each sample, equal amounts of protein were denatured and fractionated by Novex Wedge Well 4-20% Tris-Glycine Mini Gels (Invitrogen cat. no. XP04205BOX), and then transferred onto a Immobilon-PVDF Membrane membranes (Merck, cat. no. IPVH00010) at 80 V for 1 h at 4 °C. Membranes were blocked by placing them in a 5% BSA in Tris-buffered saline with Tween-20 (TBST; 20 mM Tris, 150 mM NaCl, 0.1% Tween-20) for 1 h. Membranes were then incubated overnight at 4 °C with primary antibodies against KRAS (1:1000, invitrogen: #703345), GAPDH (1:2000, Cell signaling #2118). After three washes with TBST, membranes were incubated with the appropriate HRP-conjugated secondary antibodies (1:1000, KwikQuant #R1006) for 1 hour RT. After three washing. Detection of bound antibodies was carried out using ECL reagents (KwikQuant #R1004) and bands were detected by ATTO Luminograph III Lite. The intensity of the KRAS band was quantified using ImageJ software and normalized to the intensity of GAPDH band.

KRAS G12D [5] = target: T3, KRAS G12D; assay: IPS-Chip PPIExplorer solid-phase cell-free ubiquitination of KRAS G12D using CRBN; format: biochemical; set-up: His-tagged CUL4A/RBX1/DDB1/CRBN E3; UBE1 (E1) and UbcH5a/UBE2D1 (E2) as helper enzymes; conditions: in the presence of CRBN, E1, E2, ubiquitin and ATP
Procedure: as §1, with “passaging.” for “passaging. KRAS Mouse Monoclonal Antibody was purchased from Origene (cat. no. TA801672), anti-3-actin was purchased from AB Frontier (cat. no. LF-MA20055).”
The 0.2 mg/ml 6× His tag monoclonal antibody was diluted in 30% glycerol in 1×PBS, pH 7.4, was spotted onto the IPS-Chip for 16 h at 4 °C. […] To detect polyubiquitination signals, the chip was scanned using a GenePix Pro 6.0 (Axon Instruments, CA, USA), and the data analyzed with an Origin 6.1 (Originlab, MA, USA).

Row | SMILES | poly-ubiquitination and degradation of KRAS (KRAS) | ternary complex formation / binding to KRAS G12D (CRBN-KRAS G12D; CRBN + KRAS G12D) | selectivity for KRAS G12D over KRAS WT (CRBN-KRAS G12D; KRAS G12D vs KRAS WT) | effect on degradation of KRAS WT (KRAS WT) | TGI ([1]; 80 mpk BiW, oral, AsPC-1 xenograft mice) | anti-cancer activity ([1]; AsPC-1 xenograft mice) | mean tumor growth vs vehicle ([1]; high dose 80 mpk, oral, twice a week for 28 days) | tumor weight ([1]; oral, twice a week for 28 days) | Maximum degradation (KRAS G12D [2]) | body weight effect ([3]; AsPC-1 xenograft mice, twice a week, 28 days) | decreases in weight and food intake ([3]; oral, twice a week for 28 days, vs vehicle group) | Dmax (KRAS G12D [4]; ASPC1, KRAS G12D degradation, AsPC-1 cells) | DC50 (KRAS G12D [4]; KRAS G12D degradation, AsPC-1 cells) | degradation of KRAS G12D (KRAS G12D [4]; western blot, AsPC-1 pancreatic cancer cells) | ubiquitination of KRAS G12D (KRAS G12D [5])
1 | C=C(F)C(=O)N1CCN(c2nc(OC[C@@H]3CCCN3CCCOCCC(=O)N[C@H](C(=O)N3C[C@H](O)C[C@H]3C(=O)NCc3ccc(-c4scnc4C)cc3)C(C)(C)C)nc3c2CCN(c2cccc4cccc(Cl)c24)C3)C[C@@H]1CC#N [LC2] | poly-ubiquitination of KRAS, thus proteosome-mediated degradation of the protein | – | – | – | – | – | – | – | – | – | – | – | – | – | –
2 | CCOC(=O)[C@H](CCc1ccccc1)N[C@@H](C)C(=O)c1ccccc1 [IPS-06061, ethyl (2S)-2-((1-oxo-1-phenylpropan-2-yl)amino)-4-phenylbutanoate] | – | binds specifically to KRAS G12D, forming a ternary complex | High selective for KRAS G12D | no effect on the degradation of KRAS WT; also recorded: without affecting KRAS Wild Type | ~ 100% | strong anti-cancer activity | remarkably reduced | significantly reduced tumor weight | > 75% | No body weight effect | such differences were not noted | > 90% | < 500 nM | Time-dependent degradation of KRAS G12D; also recorded: degrades KRAS G12D mutant | promoted the ubiquitination of KRAS G12D in a dose-dependent manner
